Data from PubChem BioAssay AID330 (DTP/NCI, 2004).
Where “and” joins values, the source holds several entries; their conditions need not be identical. Equal entries are not always repeated. Toxic doses and inconclusive results are not listed. The calls were made as follows: active = survival T/C of 150% or more; inactive = T/C below 125% in these data.

Tested on: P388 leukemia ip, CD2F1 mice, survival T/C
Assay: NCI In Vivo Anticancer Drug Screen. Data for tumor model P388 Leukemia (intraperitoneal) in CD2F1 (CDF1) mice
Conditions: endpoint: median survival time, higher = longer survival
In short: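 Mice carrying the transplanted tumor received test compound or vehicle. Survival was recorded in each group, and the value is the treated-group measurement divided by that of the vehicle-treated control group.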

[1] = dose: 50.0 mg/kg/injection, schedule: Q01DX005 (ip), vehicle: saline with Tween-80
[2] = dose: 100.0 mg/kg/injection, schedule: Q01DX005 (ip), vehicle: saline with Tween-80
[3] = dose: 12.5 mg/kg/injection, schedule: Q01DX005 (ip), vehicle: Klucel (hydroxypropylcellulose) (HPC)
[4] = dose: 25.0 mg/kg/injection, schedule: Q01DX005 (ip), vehicle: Klucel (hydroxypropylcellulose) (HPC)
[5] = dose: 50.0 mg/kg/injection, schedule: Q01DX005 (ip), vehicle: Klucel (hydroxypropylcellulose) (HPC)
[6] = dose: 60.0 mg/kg/injection, schedule: Q01DX005 (ip), vehicle: saline
[7] = dose: 120.0 mg/kg/injection, schedule: Q01DX005 (ip), vehicle: saline
[8] = dose: 50.0 mg/kg/injection, schedule: Q01DX005 (ip), vehicle: saline
[9] = dose: 100.0 mg/kg/injection, schedule: Q01DX005 (ip), vehicle: saline
[10] = dose: 200.0 mg/kg/injection, schedule: Q01DX005 (ip), vehicle: saline
[11] = dose: 15.0 mg/kg/injection, schedule: Q01DX005 (ip), vehicle: saline
[12] = dose: 30.0 mg/kg/injection, schedule: Q01DX005 (ip), vehicle: saline
[13] = dose: 60.0 mg/kg/injection, schedule: Q01DX005 (ip), vehicle: saline with Tween-80
[14] = dose: 120.0 mg/kg/injection, schedule: Q01DX005 (ip), vehicle: saline with Tween-80
[15] = dose: 240.0 mg/kg/injection, schedule: Q01DX005 (ip), vehicle: saline with Tween-80
[16] = dose: 100.0 mg/kg/injection, schedule: Q04DX002 (ip), vehicle: Klucel (hydroxypropylcellulose) (HPC)
[17] = dose: 200.0 mg/kg/injection, schedule: Q04DX002 (ip), vehicle: Klucel (hydroxypropylcellulose) (HPC)
[18] = dose: 100.0 mg/kg/injection, schedule: Q04DX003 (ip), vehicle: saline with Tween-80
[19] = dose: 200.0 mg/kg/injection, schedule: Q04DX003 (ip), vehicle: saline with Tween-80
[20] = dose: 100.0 mg/kg/injection, schedule: Q01DX005 (ip), vehicle: Klucel (hydroxypropylcellulose) (HPC)
[21] = dose: 200.0 mg/kg/injection, schedule: Q01DX005 (ip), vehicle: Klucel (hydroxypropylcellulose) (HPC)
[22] = dose: 200.0 mg/kg/injection, schedule: Q01DX005 (ip), vehicle: saline with Tween-80
[23] = dose: 12.5 mg/kg/injection, schedule: Q01DX009 (ip), vehicle: Klucel (hydroxypropylcellulose) (HPC)
[24] = dose: 25.0 mg/kg/injection, schedule: Q01DX009 (ip), vehicle: Klucel (hydroxypropylcellulose) (HPC)
[25] = dose: 50.0 mg/kg/injection, schedule: Q01DX009 (ip), vehicle: Klucel (hydroxypropylcellulose) (HPC)
[26] = dose: 50.0 mg/kg/injection, schedule: Q01DX009 (ip), vehicle: other
[27] = dose: 50.0 mg/kg/injection, schedule: Q01DX009 (ip), vehicle: saline with Tween-80
[28] = dose: 100.0 mg/kg/injection, schedule: Q01DX009 (ip), vehicle: saline with Tween-80
[29] = dose: 200.0 mg/kg/injection, schedule: Q01DX009 (ip), vehicle: saline with Tween-80
[30] = dose: 12.5 mg/kg/injection, schedule: Q01DX009 (ip), vehicle: saline with Tween-80
[31] = dose: 25.0 mg/kg/injection, schedule: Q01DX009 (ip), vehicle: saline with Tween-80

Measured: T/C

O=C(c1ccccc1)C1CCCN(CCc2ccccc2)C1 (stereo unspecified)
inactive: [1] 108 % of control | [2] 109 % of control

C[C-]=O.C[C-]=O.[C-]#[O+].[C-]#[O+].[C-]#[O+].[C-]#[O+].[Re]
inactive: [3] 101 % of control | [4] 96 % of control | [5] 93 % of control

CN(C)CC/C=C1\c2ccccc2Sc2ccc(Cl)cc21
inactive: [3] 107 % of control and 112 % of control | [4] 117 % of control and 120 % of control | [5] 117 % of control

OCC1OC(n2nnc3cc[nH]c(=S)c32)C(O)C1O (stereo unspecified)
inactive: dose: 1.56 mg/kg/injection, schedule: Q01DX009 (ip), vehicle: water 106 % of control | dose: 3.13 mg/kg/injection, schedule: Q01DX009 (ip), vehicle: water 99 % of control | dose: 6.25 mg/kg/injection, schedule: Q01DX009 (ip), vehicle: water 98 % of control | dose: 12.5 mg/kg/injection, schedule: Q01DX009 (ip), vehicle: water 107 % of control | dose: 25.0 mg/kg/injection, schedule: Q01DX009 (ip), vehicle: water 97 % of control

O/N=C/c1ccccn1
inactive: [6] 92 % of control | [7] 101 % of control | dose: 240.0 mg/kg/injection, schedule: Q01DX005 (ip), vehicle: saline 100 % of control

CC(C)C(N)C(=O)NC(C(=O)NS(=O)(=O)c1ccc(N)cc1)C(C)C (stereo unspecified)
inactive: [8] 99 % of control | [9] 93 % of control | [10] 98 % of control

O=S(=O)(n1ccnc1)C(F)(F)F
inactive: dose: 12.5 mg/kg/injection, schedule: Q01DX001 (ip), vehicle: saline 101 % of control | dose: 25.0 mg/kg/injection, schedule: Q01DX001 (ip), vehicle: saline 96 % of control | dose: 50.0 mg/kg/injection, schedule: Q01DX001 (ip), vehicle: saline 96 % of control

Nc1nnc(Cc2ccccc2)n1N
inactive: [11] 100 % of control | [12] 101 % of control | [13] 98 % of control | [6] 100 % of control and 117 % of control | [14] 100 % of control | [7] 116 % of control | [15] 94 % of control

O=C1CCCCC1N1C(=O)c2ccccc2C1=O (stereo unspecified)
inactive: [16] 101 % of control | [17] 97 % of control | dose: 400.0 mg/kg/injection, schedule: Q04DX002 (ip), vehicle: Klucel (hydroxypropylcellulose) (HPC) 97 % of control

CC1=NCCN=C(C)C1N=Nc1ccc(S(=O)(=O)N=C(N)N)cc1
inactive: [18] 90 % of control | [19] 92 % of control | dose: 400.0 mg/kg/injection, schedule: Q04DX003 (ip), vehicle: saline with Tween-80 90 % of control

CCN(CC)CCSc1c2ccccc2nc2ccccc12
inactive: dose: 3.75 mg/kg/injection, schedule: Q01DX005 (ip), vehicle: saline with Tween-80 110 % of control | dose: 7.5 mg/kg/injection, schedule: Q01DX005 (ip), vehicle: saline with Tween-80 114 % of control | dose: 15.0 mg/kg/injection, schedule: Q01DX005 (ip), vehicle: saline with Tween-80 107 % of control

Fc1ccccc1N=Cc1ccc(C=Nc2ccccc2F)cc1
inactive: dose: 15.0 mg/kg/injection, schedule: Q01DX005 (ip), vehicle: Klucel (hydroxypropylcellulose) (HPC) 100 % of control | dose: 30.0 mg/kg/injection, schedule: Q01DX005 (ip), vehicle: Klucel (hydroxypropylcellulose) (HPC) 92 % of control | dose: 60.0 mg/kg/injection, schedule: Q01DX005 (ip), vehicle: Klucel (hydroxypropylcellulose) (HPC) 95 % of control

CC(C)C(NC=O)C(=O)O (stereo unspecified)
inactive: [5] 101 % of control | [1] 91 % of control | [20] 101 % of control | [2] 98 % of control | [21] 95 % of control | [22] 94 % of control

Cc1cc2c3c([nH]c2cc1[N+](=O)[O-])CCCC3=O
inactive: [4] 88 % of control | [5] 88 % of control | [20] 86 % of control | [21] 90 % of control

Cc1ccc(CCN2CSC(=S)N(CCc3ccc(C)cc3)C2)cc1
inactive: [23] 101 % of control | [24] 96 % of control | [25] 100 % of control | [26] 96 % of control

COc1ccc2c(c1)CCC1(C)CC(=O)C(Br)=C21 (stereo unspecified)
inactive: dose: 6.25 mg/kg/injection, schedule: Q01DX009 (ip), vehicle: Klucel (hydroxypropylcellulose) (HPC) 109 % of control and 112 % of control and 114 % of control | [23] 100 % of control and 107 % of control and 114 % of control | [24] 102 % of control and 107 % of control | [25] 106 % of control

Cc1ccc([N+](=O)[O-])cc1NC(=O)Oc1cc(C)c(Br)c(C)c1
inactive: [27] 106 % of control | [28] 106 % of control | [29] 112 % of control

CC(CCC(=O)O)C1CCC2C3CCC4CC(OC=O)CCC4(C)C3CC(OC=O)C12C (stereo unspecified)
inactive: [27] 95 % of control | dose: 50.0 mg/kg/injection, schedule: Q04DX003 (ip), vehicle: saline with Tween-80 105 % of control | [28] 90 % of control | [18] 100 % of control | [29] 90 % of control | [19] 100 % of control

CCCCCCCCC1SC1CCCCCCCC(=O)OCCOCCOCC (stereo unspecified)
inactive: [28] 104 % of control | [29] 104 % of control | dose: 400.0 mg/kg/injection, schedule: Q01DX009 (ip), vehicle: saline with Tween-80 100 % of control

CCOc1ccc(NC(=O)C(=O)NNC(=S)NC)cc1
inactive: [30] 94 % of control | [31] 92 % of control | [27] 92 % of control and 97 % of control

CC(C)(CCC(C)(C)NC(=O)C12CC3CC(CC(C3)C1)C2)NC(=O)C12CC3CC(CC(C3)C1)C2
inactive: [1] 90 % of control | [2] 97 % of control | [22] 97 % of control

CN1C(=O)N(C2CCCCC2)C(=O)C(C)(CN2CCCCC2)C1=O (stereo unspecified)
inactive: [30] 102 % of control | [31] 100 % of control | [27] 102 % of control | dose: 50.0 mg/kg/injection, schedule: Q01DX009 (sc), vehicle: saline with Tween-80 100 % of control | dose: 200.0 mg/kg/injection, schedule: Q01DX009 (sc), vehicle: saline with Tween-80 108 % of control

COc1ccc(C(=O)c2ncccc2C(=O)O)cc1OC
inactive: dose: 25.0 mg/kg/injection, schedule: Q01DX009 (ip), vehicle: other 93 % of control | [26] 88 % of control | dose: 100.0 mg/kg/injection, schedule: Q01DX009 (ip), vehicle: other 100 % of control | dose: 200.0 mg/kg/injection, schedule: Q01DX009 (ip), vehicle: other 97 % of control | dose: 400.0 mg/kg/injection, schedule: Q01DX009 (ip), vehicle: other 94 % of control

Clc1ccc(C(Nc2nncs2)Nc2nncs2)c(Cl)c1
inactive: [16] 109 % of control | [17] 114 % of control

CC1(C(Cl)(Cl)Cl)C=C(Cl)C(=O)C(Cl)=C1
inactive: [4] 99 % of control | [5] 98 % of control and 92 % of control | [20] 102 % of control | [21] 92 % of control

O=C(/N=C1\N=Nc2nc(C(C(=O)c3ccc(F)cc3)c3nc4n(c3O)/C(=N/C(=O)Nc3ccc(Cl)cc3)N=N4)c(O)n21)Nc1ccc(Cl)cc1 (stereo unspecified)
inactive: [13] 91 % of control | [14] 91 % of control | [15] 88 % of control

C[n+]1cccc(C(=O)O)c1
inactive: dose: 25.0 mg/kg/injection, schedule: Q01DX005 (ip), vehicle: saline 100 % of control | [8] 101 % of control | [9] 99 % of control | [10] 91 % of control

COc1ccc(SC(N(C)C)=[N+](C)C)cc1
inactive: [11] 100 % of control | [12] 100 % of control | [6] 102 % of control and 121 % of control

CN(C)c1ncnc2c1ncn2C1CCCCO1 (stereo unspecified)
inactive: [3] 103 % of control | [4] 105 % of control | [5] 100 % of control
